The subject of the assay is test plant species. As to the kind of experiment: Post-emergent herbicidal activity test (greenhouse, foliar spray, visual growth reduction). Type of assay: in vivo. The conditions noted are these: post-emergence, 336 h, 140 g ai/ha, 14 days after application. The method, boiled down: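 Visual scoring 14 d after treatment (0 = no injury, 100 = complete control) against nontreated and solvent-blank plants gave percent growth reduction. Foliar application used a track sprayer delivering 187 L/ha to seedlings at first or second true leaf stage, grown at 23–29 °C day, ~15 h photoperiod.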

Setting [1] is: ALOMY: blackgrass (Alopecurus myosuroides), read-out: Visual Growth Reduction (%) 14 Days After Application, ALOMY.
Where [2] appears, read: AMARE: redroot pigweed (Amaranthus retroflexus), read-out: Visual Growth Reduction (%) 14 Days After Application, AMARE.
[3] abbreviates: AVEFA: wild oat (Avena fatua), read-out: Visual Growth Reduction (%) 14 Days After Application, AVEFA.
[4] abbreviates: CHEAL: lambsquarters (Chenopodium album), read-out: Visual Growth Reduction (%) 14 Days After Application, CHEAL.
Where [5] appears, read: CIRAR: canada thistle (Cirsium arvense), read-out: Visual Growth Reduction (%) 14 Days After Application, CIRAR.
Setting [6] is: CYPES: yellow nutsedge (Cyperus esculentus), read-out: Visual Growth Reduction (%) 14 Days After Application, CYPES.
Setting [7] is: DIGSA: crabgrass (Digitaria sanguinalis), read-out: Visual Growth Reduction (%) 14 Days After Application, DIGSA.
Setting [8] is: ECHCG: barnyardgrass (Echinochloa crus-galli), read-out: Visual Growth Reduction (%) 14 Days After Application, ECHCG.
Setting [9] is: IPOHE: ivy-leaf morning glory (Ipomoea hederacea), read-out: Visual Growth Reduction (%) 14 Days After Application, IPOHE.
[10] abbreviates: KCHSC: kochia (Bassia scoparia), read-out: Visual Growth Reduction (%) 14 Days After Application, KCHSC.
Setting [11] is: ORYSA: rice (Oryza sativa), read-out: Visual Growth Reduction (%) 14 Days After Application, ORYSA.
Setting [12] is: SETFA: giant foxtail (Setaria faberi), read-out: Visual Growth Reduction (%) 14 Days After Application, SETFA.
[13] abbreviates: SORVU: grain sorghum (Sorghum vulgare), read-out: Visual Growth Reduction (%) 14 Days After Application, SORVU.
Setting [14] is: STEME: common chickweed (Stellaria media), read-out: Visual Growth Reduction (%) 14 Days After Application, STEME.
Setting [15] is: TRZAS: wheat, spring (Triticum aestivum), read-out: Visual Growth Reduction (%) 14 Days After Application, TRZAS.

Pest or weed control data for 9 compounds are collected here from US20230017045A1, “PYRIDINE AND PYRIMIDINE CARBOXYLATE HERBICIDES AND METHODS OF USE THEREOF” (Dow AgroSciences LLC, priority 2017, published 2023).

Where two headings read alike, the source gives them in different places.

For the compound `COC(=O)c1nc(-c2ncc(Cl)c(C(F)F)c2Cl)ccc1Cl` [F184], the pest or weed control at 140 g/ha under setting [1] was 0 to 29%; the pest or weed control at 140 g/ha under setting [2] was in the range of 60 to 74%; the pest or weed control at 140 g/ha under setting [3] lay within 0 to 29%; the pest or weed control at 140 g/ha under setting [4] is 60 to 74%; the pest or weed control at 140 g/ha under setting [5] lay in the range of 45 to 59%; the pest or weed control at 140 g/ha under setting [6] fell in the range of 0 to 29%. Besides, the pest or weed control at 140 g/ha under setting [7] was in the range of 60 to 74%; the pest or weed control at 140 g/ha under setting [8] was 85 to 94%; the pest or weed control at 140 g/ha under setting [9] lay in the range of 95 to 100%; the pest or weed control at 140 g/ha under setting [10] lay in the range of 0 to 29%; the pest or weed control at 140 g/ha under setting [11] lay within 30 to 44%; the pest or weed control at 140 g/ha under setting [12] fell in the range of 85 to 94%. Further, the pest or weed control at 140 g/ha reads like this: under setting [13], 95 to 100%; under setting [14], 0 to 29%; under setting [15], 30 to 44%.

Take `COC(=O)c1nc(-c2ccc(OC(F)(F)F)cc2)c(F)cc1Cl` [F185, Methyl 3-chloro-5-fluoro-6-(4-(trifluoromethoxy)phenyl)picolinate]: the pest or weed control at 140 g/ha reads like this: under setting [1], 0 to 29%; under setting [2], 0 to 29%; under setting [3], 0 to 29%; under setting [4], 45 to 59%; under setting [5], 0 to 29%; under setting [6], 0 to 29%. The pest or weed control at 140 g/ha runs as follows: under setting [7], 75 to 84%; under setting [8], 0 to 29%; under setting [9], 75 to 84%; under setting [10], 0 to 29%; under setting [11], 0 to 29%; under setting [12], 30 to 44%. Also, the pest or weed control at 140 g/ha is, setting by setting: under setting [13], 60 to 74%; under setting [14], 0 to 29%; under setting [15], 0 to 29%.

Consider `COC(=O)c1nc(-c2ccc(C#N)cc2Cl)c(F)cc1Cl` [F186, Methyl 3-chloro-6-(2-chloro-4-cyanophenyl)-5-fluoropicolinate], for which the pest or weed control at 140 g/ha under setting [1] lay within 0 to 29%; the pest or weed control at 140 g/ha under setting [2] is 75 to 84%; the pest or weed control at 140 g/ha under setting [3] lay within 0 to 29%; the pest or weed control at 140 g/ha under setting [4] was 85 to 94%; the pest or weed control at 140 g/ha under setting [5] was 75 to 84%; the pest or weed control at 140 g/ha under setting [6] lay within 45 to 59%. Moreover, the pest or weed control at 140 g/ha is 75 to 84% under setting [7]; 60 to 74% under setting [8]; 95 to 100% under setting [9]; 75 to 84% under setting [10]; 0 to 29% under setting [11]; 85 to 94% under setting [12]. Besides, the pest or weed control at 140 g/ha under setting [13] lay in the range of 85 to 94%, the pest or weed control at 140 g/ha under setting [14] is 0 to 29% and the pest or weed control at 140 g/ha under setting [15] is 30 to 44%.

As to `COC(=O)c1nc(-c2ccc(OC(F)(F)F)cc2F)c(F)cc1Cl` [F187, Methyl 3-chloro-5-fluoro-6-(2-fluoro-4-(trifluoromethoxy)phenyl)picolinate], the pest or weed control at 140 g/ha fell in the range of 0 to 29% under setting [1]; 85 to 94% under setting [2]; 30 to 44% under setting [3]; 75 to 84% under setting [4]; 75 to 84% under setting [5]; 30 to 44% under setting [6]. The pest or weed control at 140 g/ha by setting is: under setting [7], 85 to 94%; under setting [8], 45 to 59%; under setting [9], 95 to 100%; under setting [10], 45 to 59%; under setting [11], 0 to 29%; under setting [12], 75 to 84%. Also, the pest or weed control at 140 g/ha lay within 95 to 100% under setting [13], 0 to 29% under setting [14] and 30 to 44% under setting [15].

For `COC(=O)c1nc(-c2ccc3occc3c2)c(F)cc1Cl` [F188, Methyl 6-(benzofuran-5-yl)-3-chloro-5-fluoropicolinate], the pest or weed control at 140 g/ha runs as follows: under setting [1], 0 to 29%; under setting [2], 0 to 29%; under setting [3], 0 to 29%; under setting [4], 60 to 74%; under setting [5], 45 to 59%; under setting [6], 0 to 29%. For the same compound, the pest or weed control at 140 g/ha reads like this: under setting [7], 30 to 44%; under setting [8], 0 to 29%; under setting [9], 30 to 44%; under setting [10], 0 to 29%; under setting [11], 0 to 29%; under setting [12], 0 to 29%. The pest or weed control at 140 g/ha was 0 to 29% under setting [13], 0 to 29% under setting [14] and 0 to 29% under setting [15].

With `COC(=O)c1nc(-c2ccc3[nH]ccc3c2)c(F)cc1Cl` [F189, Methyl 3-chloro-5-fluoro-6-(1H-indol-5-yl)picolinate], the pest or weed control at 140 g/ha is, setting by setting: under setting [1], 0 to 29%; under setting [2], 0 to 29%; under setting [3], 0 to 29%; under setting [4], 30 to 44%; under setting [5], 30 to 44%; under setting [6], 0 to 29%. Besides, the pest or weed control at 140 g/ha is, setting by setting: under setting [7], 0 to 29%; under setting [8], 0 to 29%; under setting [9], 60 to 74%; under setting [10], 0 to 29%; under setting [11], 0 to 29%; under setting [12], 0 to 29%. The pest or weed control at 140 g/ha fell in the range of 0 to 29% under setting [13], 0 to 29% under setting [14] and 0 to 29% under setting [15].

`COc1cc(C(F)(F)F)ccc1-c1nc(C(=O)O)c(Cl)cc1F` [F190, 3-Chloro-5-fluoro-6-(2-methoxy-4-(trifluoromethyl)phenyl) picolinic acid]: the pest or weed control at 140 g/ha lay in the range of 0 to 29% under setting [1]; 95 to 100% under setting [2]; 60 to 74% under setting [3]; 95 to 100% under setting [4]; 85 to 94% under setting [5]; 0 to 29% under setting [6]. Further, the pest or weed control at 140 g/ha by setting is: under setting [7], 85 to 94%; under setting [8], 95 to 100%; under setting [9], 95 to 100%; under setting [10], 75 to 84%; under setting [11], 30 to 44%; under setting [12], 95 to 100%. For the same compound, the pest or weed control at 140 g/ha fell in the range of 95 to 100% under setting [13], 0 to 29% under setting [14] and 60 to 74% under setting [15].

In the case of `COC(=O)c1nc(-c2ncc(Cl)cc2Cl)ccc1Cl` [F191, Methyl 3′,5,5′-trichloro-[2,2′-bipyridine]-6-carboxylate], the pest or weed control at 140 g/ha is 0 to 29% under setting [1]; 85 to 94% under setting [2]; 0 to 29% under setting [3]; 95 to 100% under setting [4]; 85 to 94% under setting [5]; 45 to 59% under setting [6]. For the same compound, the pest or weed control at 140 g/ha reads like this: under setting [7], 85 to 94%; under setting [8], 75 to 84%; under setting [9], 95 to 100%; under setting [10], 60 to 74%; under setting [11], 0 to 29%; under setting [12], 85 to 94%. Also, the pest or weed control at 140 g/ha fell in the range of 85 to 94% under setting [13], 0 to 29% under setting [14] and 0 to 29% under setting [15].

`O=C(O)c1nc(-c2ccc(C(F)(F)F)nc2Cl)ccc1Cl` [F192, 2′,5-Dichloro-6′-(trifluoromethyl)-[2,3′-bipyridine]-6-carboxylic acid]: the pest or weed control at 140 g/ha by setting is: under setting [1], 0 to 29%; under setting [2], 85 to 94%; under setting [3], 0 to 29%; under setting [4], 95 to 100%; under setting [5], 75 to 84%; under setting [6], 0 to 29%. Moreover, the pest or weed control at 140 g/ha by setting is: under setting [7], 85 to 94%; under setting [8], 75 to 84%; under setting [9], 95 to 100%; under setting [10], 60 to 74%; under setting [11], 0 to 29%; under setting [12], 75 to 84%. Besides, the pest or weed control at 140 g/ha under setting [13] fell in the range of 85 to 94%, the pest or weed control at 140 g/ha under setting [14] lay within 0 to 29% and the pest or weed control at 140 g/ha under setting [15] was in the range of 0 to 29%.
